Like-named read-outs stand apart in the source and are kept apart here.
Assays:
human C5aR = human C5aR (Homo sapiens (Human), UniProt P21730); assay: FLIPR assay: inhibition of C5a-mediated calcium mobilization; assay type: cell-based; conditions: stable cell line over expressing human C5aR & Gα15, human C5a at EC50 (0.1-0.25 nM)
Summary of the method: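 Stable cell line overexpressing human C5aR with Gα15, measured on FLIPR Tetra. Cells loaded 1 h at 37° C with calcium 5 dye and 2.5 mM probenecid in HBSS/20 mM HEPES/0.1% BSA. Compounds preincubated 30 minutes at room temperature in 1% DMSO before C5a.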

CD11b = assay: Human whole blood CD11b up-regulation assay; assay type: cell-based; conditions: 2 nM human C5a, CD15+ granulocytes, read-out: hCD11b IC50
Summary of the method: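 Heparinized human whole blood (used within 2 h) preincubated 10 min at room temperature with compound in 1% DMSO, then stimulated with 2 nM human C5a for 15 min. After anti-CD15/anti-CD11b staining on ice and RBC lysis, CD11b median fluorescence on 10,000 CD15+ granulocytes measured by flow cytometry.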

physchem = conditions: thermodynamic from solid, 24 hr Equilibrium Solubility

Chain of human C5aR (P21730 whole entry): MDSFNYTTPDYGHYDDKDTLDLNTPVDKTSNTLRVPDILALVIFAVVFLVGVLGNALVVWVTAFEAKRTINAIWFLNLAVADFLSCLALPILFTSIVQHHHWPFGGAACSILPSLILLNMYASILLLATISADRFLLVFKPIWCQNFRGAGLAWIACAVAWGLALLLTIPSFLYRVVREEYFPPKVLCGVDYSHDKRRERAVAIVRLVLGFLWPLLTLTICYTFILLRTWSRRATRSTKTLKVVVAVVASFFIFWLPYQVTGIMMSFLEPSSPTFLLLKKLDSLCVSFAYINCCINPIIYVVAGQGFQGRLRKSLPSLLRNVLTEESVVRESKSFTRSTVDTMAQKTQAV

IC50 (human C5aR) [nM]	IC50 (CD11b; Homo sapiens) [nM]	Structure (SMILES)	also measured
4	11	CO[C@@H]1CCN(c2nc(-c3c(C)cccc3C)nc3c2CN(c2cc(C(F)(F)F)ccc2C)CC3)CC1(C)C [Example 21-AB, (R)-2-(2,6-dimethylphenyl)-4-(4-methoxy-3,3-dimethylpiperidin-1-yl)-6-(2-methyl-5-(trifluoromethyl)phenyl)-5,6,7,8-tetrahydropyrido[4,3-d]pyrimidine]	–
1	6	CO[C@@H]1CCN(c2nc(-c3c(C)ccc4[nH]nc(C)c34)nc3c2CN(c2cc(C(C)C)ccc2C)CC3)C[C@H]1C [Example 19-AF]	–
1	11	CO[C@@H]1CCN(c2nc(-c3c(C)ccc4[nH]nc(C)c34)nc3c2CN(c2c(F)c(C(F)F)nn2C)CC3)CC1(C)C [Example 56-F, (R)-6-(3-(difluoromethyl)-4-fluoro-1-methyl-1H-pyrazol-5-yl)-2-(3,5-dimethyl-1H-indazol-4-yl)-4-(4-methoxy-3,3-dimethylpiperidin-1-yl)-5,6,7,8-tetrahydropyrido[4,3-d]pyrimidine]	–
32	60	Cc1ccc(C(C)C)cc1N1CCc2nc(-c3c(C)ccc4[nH]nc(C)c34)nc(OCCN3CCOCC3)c2C1 [Example 63-I, 4-(2-((2-(3,5-dimethyl-1H-indazol-4-yl)-6-(5-isopropyl-2-methylphenyl)-5,6,7,8-tetrahydropyrido[4,3-d]pyrimidin-4-yl)oxy)ethyl)morpholine]	–
13	70	CO[C@H]1CCN(c2nc(-c3cccc4[nH]cc(C)c34)nc3c2CN(c2cc(C(C)C)ccc2C)CC3)[C@H](C)C1 [Example 17-P, 6-(5-isopropyl-2-methylphenyl)-4-((2R,4S)-4-methoxy-2-methylpiperidin-1-yl)-2-(3-methyl-1H-indol-4-yl)-5,6,7,8-tetrahydropyrido[4,3-d]pyrimidine]	–
1	22	CO[C@@H]1CCN(c2nc(-c3c(C)ccc4[nH]nc(C)c34)nc3c2CN(c2cc(Cl)ccc2C)CC3)[C@H](C)C1 [Example 21-AG, 6-(5-chloro-2-methylphenyl)-2-(3,5-dimethyl-1H-indazol-4-yl)-4-((2R,4R)-4-methoxy-2-methylpiperidin-1-yl)-5,6,7,8-tetrahydropyrido[4,3-d]pyrimidine]	–
1	15	CO[C@@H]1CCN(c2nc(-c3c(C)ccc4[nH]nc(C)c34)nc3c2CN(c2c(Cl)c(C4CC4)nn2C)CC3)[C@H](C)C1 [Example 55-M, 6-(4-chloro-3-cyclopropyl-1-methyl-1H-pyrazol-5-yl)-2-(3,5-dimethyl-1H-indazol-4-yl)-4-((2R,4R)-4-methoxy-2-methylpiperidin-1-yl)-5,6,7,8-tetrahydropyrido[4,3-d]pyrimidine]	–
75	385	Cc1ccc(F)cc1N1CCc2nc(-c3cccc4[nH]cc(C)c34)nc(N3CCN(CC(N)=O)[C@H](C)C3)c2C1 [Example 24-E, (R)-2-(4-(6-(5-fluoro-2-methylphenyl)-2-(3-methyl-1H-indol-4-yl)-5,6,7,8-tetrahydropyrido[4,3-d]pyrimidin-4-yl)-2-methylpiperazin-1-yl)acetamide]	–
2	11	CO[C@@H]1CCN(c2nc(-c3c(C)cccc3C)nc3c2CN(c2cc(C4(C)COC4)ccc2C)CC3)[C@H](C)C1 [Example 21-K, 2-(2,6-dimethylphenyl)-4-((2R,4R)-4-methoxy-2-methylpiperidin-1-yl)-6-(2-methyl-5-(3-methyloxetan-3-yl)phenyl)-5,6,7,8-tetrahydropyrido[4,3-d]pyrimidine]	–
20	37	CCn1nc(C2CC2)c(Cl)c1N1CCc2nc(-c3c(C)ccc4[nH]nc(C)c34)nc(N3CC(N(C)C)C3)c2C1 [Example 70-K, 1-(6-(4-chloro-3-cyclopropyl-1-ethyl-1H-pyrazol-5-yl)-2-(3,5-dimethyl-1H-indazol-4-yl)-5,6,7,8-tetrahydropyrido[4,3-d]pyrimidin-4-yl)-N,N-dimethylazetidin-3-amine]	–
8	423	Cc1ccc(C(C)C)cc1N1CCc2nc(-c3cccc4[nH]cc(C)c34)nc(N3CCN(CC(N)=O)[C@H](C)C3)c2C1 [Example 24-J, (R)-2-(4-(6-(5-isopropyl-2-methylphenyl)-2-(3-methyl-1H-indol-4-yl)-5,6,7,8-tetrahydropyrido[4,3-d]pyrimidin-4-yl)-2-methylpiperazin-1-yl)acetamide]	–
5	51	CO[C@@H]1CCN(c2nc(-c3c(C)cccc3C)nc3c2CN(c2cc(C(F)(F)F)ccc2C)CC3)[C@H](C)C1 [Example 21-AK, 2-(2,6-dimethylphenyl)-4-((2R,4R)-4-methoxy-2-methylpiperidin-1-yl)-6-(2-methyl-5-(trifluoromethyl)phenyl)-5,6,7,8-tetrahydropyrido[4,3-d]pyrimidine]	–
10	42	COC1CCN(c2nc(-c3cccc4[nH]cc(C)c34)nc3c2CN(c2cc(C(C)C)ccc2C)CC3)[C@H](C)C1 (stereo in doubt) [Example 17-R, 6-(5-isopropyl-2-methylphenyl)-4-((2R,4S)-4-methoxy-2-methylpiperidin-1-yl)-2-(3-methyl-1H-indol-4-yl)-5,6,7,8-tetrahydropyrido[4,3-d]pyrimidine]	–
6	63	COc1nc(-c2c(C)ccc3[nH]nc(Cl)c23)nc2c1CN(c1cc(C(C)C)ccc1C)CC2 [Example 32-A, 2-(3-Chloro-5-methyl-1H-indazol-4-yl)-6-(5-isopropyl-2-methylphenyl)-4-methoxy-5,6,7,8 tetrahydropyrido[4,3-d]pyrimidine]	–
2	300	Cc1ccc(C(C)C)cc1N1CCc2nc(-c3cccc4[nH]cc(C)c34)nc(N3CCN(S(C)(=O)=O)[C@H](C)C3)c2C1 [Example 29, (R)-6-(5-isopropyl-2-methylphenyl)-2-(3-methyl-1H-indol-4-yl)-4-(3-methyl-4-(methylsulfonyl)piperazin-1-yl)-5,6,7,8-tetrahydropyrido[4,3-d]pyrimidine]	–
2	24	CO[C@H]1CCN(c2nc(-c3c(C)ccc4[nH]nc(Cl)c34)nc3c2CN(c2cc(C(C)C)ccc2C)CC3)CC1(C)C [Example 32-B, (S)-2-(3-Chloro-5-methyl-1H-indazol-4-yl)-6-(5-isopropyl-2-methylphenyl)-4-(4-methoxy-3,3-dimethylpiperidin-1-yl)-5,6,7,8-tetrahydropyrido[4,3-d]pyrimidine]	–
4	56	CO[C@H]1CN(c2nc(-c3c(C)ccc4[nH]nc(C)c34)nc3c2CN(c2cc(C(C)C)ccc2C)CC3)C[C@@H]1N(C)C (single isomer, unassigned) [Example 65-H, (trans)-1-(2-(3,5-dimethyl-1H-indazol-4-yl)-6-(5-isopropyl-2-methylphenyl)-5,6,7,8-tetrahydropyrido[4,3-d]pyrimidin-4-yl)-4-methoxy-N,N-dimethylpyrrolidin-3-amine]	–
8	38	CO[C@@H]1CCN(c2nc(-c3c(C)ccc4[nH]nc(C)c34)nc3c2CN(c2cc(C(F)(F)F)nn2C)CC3)[C@H](C)C1 [Example 23-J, 2-(3,5-dimethyl-1H-indazol-4-yl)-4-((2R,4R)-4-methoxy-2-methylpiperidin-1-yl)-6-(1-methyl-3-(trifluoromethyl)-1H-pyrazol-5-yl)-5,6,7,8-tetrahydropyrido[4,3-d]pyrimidine]	–

Structure (SMILES)	IC50 (human C5aR) [nM]	IC50 (CD11b; Homo sapiens) [nM]	also measured
CO[C@H]1C[C@H]2CC[C@@H](C1)N2c1nc(-c2c(C)ccc3[nH]nc(C)c23)nc2c1CN(c1cc(C(C)C)ccc1C)CC2 [Example 19-F, 2-(3,5-Dimethyl-1H-indazol-4-yl)-6-(5-isopropyl-2-methylphenyl)-4-((3-endo)-3-methoxy-8-azabicyclo[3.2.1]octan-8-yl)-5,6,7,8-tetrahydropyrido[4,3-d]pyrimidine]	4	13	solubility thermodynamic at 24 h (physchem; oil or lipid): > 26500 µg/mL; solubility thermodynamic at 24 h (physchem; pH 1, simulated gastric fluid): < 0.5 µg/mL; solubility thermodynamic at 24 h (physchem; pH 4.5, aqueous buffer): < 0.5 µg/mL; solubility thermodynamic at 24 h (physchem; pH 5.5, fessif): < 0.5 µg/mL; solubility thermodynamic at 24 h (physchem; pH 6.5, fassif): < 0.5 µg/mL; solubility thermodynamic at 24 h (physchem; pH 6.8, aqueous buffer): < 0.5 µg/mL; solubility thermodynamic at 24 h (physchem; simulated gastric fluid): < 0.5 µg/mL; solubility thermodynamic at 24 h (physchem; water): < 0.5 µg/mL
Cc1ccc(C(C)C)cc1N1CCc2nc(-c3cccc4[nH]cc(C)c34)cc(C)c2C1 [Example 40-D, 6-(5-Isopropyl-2-methylphenyl)-4-methyl-2-(3-methyl-1H-indol-4-yl)-5,6,7,8-tetrahydro-1,6-naphthyridine]	132	–	IC50 (CD11b): 264 nM
CO[C@H]1C[C@H]2CC[C@@H](C1)N2c1nc(-c2cccc3[nH]cc(C)c23)nc2c1CN(c1cc(C(C)C)ccc1C)CC2 [Example 17-AS, 6-(5-isopropyl-2-methylphenyl)-4-((3-endo)-3-methoxy-8-azabicyclo[3.2.1]octan-8-yl)-2-(3-methyl-1H-indol-4-yl)-5,6,7,8-tetrahydropyrido[4,3-d]pyrimidine]	46	67	–

Source: US8846656B2, “Tetrahydropyrido-pyridine and tetrahydropyrido-pyrimidine compounds and use thereof as C5a receptor modulators” (Novartis AG, priority 2011, dated 2014)
